The results in this text go back to patent US10314816B2, “Antimicrobial compounds, compositions and methods of use thereof” (Wisconsin Alumni Research Foundation, priority 2012, dated 2019).

For one assay, the system named is C. crescentus cells. Kind of assay: Measurement of ΔΨ using DiOC2, fluorescence microscopy. The class given is cell-based, Caulobacter crescentus. Conditions: 20 minutes of treatment, p<0.001. The protocol:
For experiments with C. crescentus cells, the cells were prepared by diluting the overnight culture 10-fold into fresh PYE medium. The diluted culture was grown for 1 hour at 200 rpm and 30° C. The cells were treated with compounds for 10 minutes at room temperature, DiOC2 dye was added to a final concentration of 30 μM, and incubated for 10 minutes. After labeling, small aliquots (1-2 μl) of the suspensions of cells were transferred onto 1% agarose pads for fluorescence microscopy. A Nikon Eclipse TE2000E inverted microscope with an Andor DU-895 EMCCD camera, a Perfect Focus system, and an encoded z-stage were used for phase contrast and epifluorescence microscopy. For detecting green and red fluorescence of the dye, the following wavelengths (λex/λem): 484/520 nm and 555/620 nm, respectively, were used. Acquired images were analyzed using the MATLAB-based script MicrobeTracker. […] The segmentation was applied to the fluorescence images to calculate the fluorescence intensity for individual cells. A separate MATLAB script was written to process the results from MicrobeTracker, in which the cell-area normalized ratio of red to green fluorescence for each cell was calculated.
ΔΨ was measured for two model bacteria, C. crescentus (Gram-negative) and Bacillus subtilis (Gram-positive), in the absence and presence of DCAP. […] DiOC2 emits green fluorescence (λ=530 nm) in its monomeric form. […]

The subject of a further assay is B. subtilis cells. In words: Measurement of ΔΨ using DiOC2, flow cytometry. The assay is classed as cell-based, Bacillus subtilis. To be noted: 20 minutes of treatment, p<0.001. Here is the method:
Fluorescence microscopy and flow cytometry to measure ΔΨ. The fluorescent probe, 3,3′-diethyloxacarbocyanine iodide (DiOC2) was used to measure ΔΨ in DMSO and in compound-treated cells. To eliminate the possibility of an interaction between the probe and compounds, the fluorescence intensity of solutions of DiOC2 was measured in the presence and absence of the compounds as described in the art. To measure ΔΨ in B. subtilis cells, flow cytometry was used. Cell suspensions were labeled with 30 μM DiOC2 and filtered through a Nylon filter containing 60-μm diameter pores. The fluorescence of these cells was measured using a BD LSR II flow cytometer. The following instrument settings were used for detection: low flow rate, 488 nm excitation laser, 530/30 nm emission filter for green fluorescence, and 575/26 nm emission filter for red fluorescence. […] First, a gate was drawn around the region where cells were detected in the forward versus side scatter area plot. Gating enabled the exclusion of any non-cellular materials in the sample that the instrument detected. The ratio of red-to-green fluorescence was calculated for each particle within the gate using the software, and the resulting data was exported to GraphPad Prism to create box plots shown in FIG. 5. Statistical parameters were calculated using the Kruskal-Wallis non-parametric one-way analysis of variation (GraphPad InStat). […]
In general terms: Flow cytometry measures light scatter and fluorescence of single cells or particles in a stream.

The test system of a further assay is Venus-FtsA. Kind of assay: Measurement of compound effects on FtsA localization. The class given is cell-based, Caulobacter crescentus. Conditions: C. crescentus, 20 minutes. The protocol: Measurement of compound effects on FtsA: For experiments with C. crescentus expressing Venus-FtsA, a synchronized population of cells was used. First, an overnight culture was grown with kanamycin (5 μg/mL) and glucose (0.02% w/v). The presence of glucose suppressed the transcription of venus-ftsA from its xylose-inducible promoter. 2 mL of this culture was diluted into 25 mL of fresh PYE with the antibiotic and glucose, and incubated further to achieve an absorbance of ˜0.6 (λ=600 nm). Once the cells reached mid-exponential phase, the culture was centrifuged for 10 minutes at 6000 rpm and 4° C. The cell pellet was resuspended in ice-cold M2 (a final volume of approximately 1000 μL) and 750 μL of this suspension was added to an equal-volume of sterile Percol (Sigma Aldrich). After thoroughly mixing the solution, it was centrifuged for 20 minutes at 11,000 rpm and 4° C. Upon centrifugation, the bottom band (swarmer cells) was taken and the cells were washed in ice-chilled M2 solution (1 mL). The washed cell pellet was suspended in fresh PYE containing kanamycin (no glucose, 6 mL). The cell suspension was incubated for 20 minutes and then xylose (0.03% w/v) was added to induce the expression of venus-ftsA. Cells were grown for another 20 minutes and subsequently treated with compounds. The cells were incubated for 20 minutes again in the presence of the compounds prior to imaging. Thus, the total time of xylose induction was 40 minutes, and the total time of compound treatment was 20 minutes. At this time point (60 minutes post synchrony), the majority of the cells were at the beginning of cell division. Imaging conditions and data analysis were identical to the conditions described for MipZ-YFP, except for a set of criteria used for defining ‘wildtype’ protein localization. ‘Wildtype’ was defined as 1) Venus-FtsA is unipolar, meaning there was one peak, and the peak resided within a polar region; and 2) Venus-FtsA was at the mid-cell, meaning there was one peak and it was within the mid-cell region (40-60% of the normalized cell length). […]

For `OCC(CO)(CO)NCC(O)Cn1c2ccc(Cl)cc2c2cc(Cl)ccc21` (stereo not shown) [DCAP, 2-((3-(3,6-dichloro-9H-carbazol-9-yl)-2-hydroxypropyl)amino)-2-(hydroxymethyl)propane-1,3-diol], the “ΔΨ (λ576/λ530 of DiOC2)” value in the assay on C. crescentus cells and with B. subtilis cells was “significant decrease in λ576/λ530” each time. Further, the Venus-FtsA localization result in the assay with Venus-FtsA (treated with DCAP) is listed as “exhibited multiple peaks of FtsA fluorescence (≥2)”.
Take `N#CC(C#N)=NNc1cccc(Cl)c1` [CCCP, carbonyl cyanide m-chlorophenyl hydrazone]: the “ΔΨ (λ576/λ530 of DiOC2)” value in the assay with C. crescentus cells and in the assay on B. subtilis cells was “significant decrease in λ576/λ530” throughout. In addition, the Venus-FtsA localization entry in the assay on Venus-FtsA (CCCP at its minimum inhibitory concentration (5 μM)) is “did not alter the localization of FtsA”; in the assay with Venus-FtsA (higher concentration of CCCP (25 μM)) it was “had a significant effect on the position of FtsA”.
